Experimental data from ChEMBL document CHEMBL1201862, “PubChem BioAssay data set” (2004).
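96-well plates; 48 h exposure; 5 concentrations. Endpoints by linear interpolation between flanking doses. Not reached: highest tested concentration assigned. At the GI50, growth is halved.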 Active and inactive are the calls of the source. Rule as the data show it: active = GI50 up to about 1.1 µM and inactive = higher. Peptide text beside a SMILES is read from it. * marks the point of attachment. Boc = CC(C)(C)OC(=O)*; OBn = c1ccc(CO*)cc1; Bn = c1ccc(C*)cc1

Columns and labels:
Test in all cases: NCI-60 cell line screen, 48 h
CAKI-1 = test system: CAKI-1
HT-29 = test system: HT-29
Hs-578T = test system: Hs-578T
K562 = test system: K562
M14 = test system: M14
MOLT-4 = test system: MOLT-4
Malme-3M = test system: Malme-3M
OVCAR-5 = test system: OVCAR-5
OVCAR-8 = test system: OVCAR-8
RXF 393 = test system: RXF 393
SN12C = test system: SN12C
SNB-19 = test system: SNB-19
SR = test system: SR
SW-620 = test system: SW-620
TK-10 = test system: TK-10
U-251 = test system: U-251
UACC-62 = test system: UACC-62
UO-31 = test system: UO-31
HL-60 = test system: HL-60
CCRF-CEM = test system: CCRF-CEM

| SMILES | GI50 (CAKI-1) | GI50 (HT-29) | GI50 (Hs-578T) | GI50 (K562) | GI50 (M14) | GI50 (MOLT-4) | GI50 (Malme-3M) | GI50 (OVCAR-5) | GI50 (OVCAR-8) | GI50 (RXF 393) | GI50 (SN12C) | GI50 (SNB-19) | GI50 (SR) | GI50 (SW-620) | GI50 (TK-10) | GI50 (U-251) | GI50 (UACC-62) | GI50 (UO-31) | GI50 (HL-60) | GI50 (CCRF-CEM) |
| --- | --- | --- | --- | --- | --- | --- | --- | --- | --- | --- | --- | --- | --- | --- | --- | --- | --- | --- | --- | --- |
| CC1(C)SC2C(C(=O)O)N=C(Cc3ccccc3)N2C1C(=O)O (centres undefined) | 43.7 µM (inactive) | 13.6 µM (inactive) | 29.4 µM (inactive) | 62.7 µM (inactive) | 37.2 µM (inactive) | > 100 µM (inactive) | 62.2 µM (inactive) | 36.8 µM (inactive) | 37.3 µM (inactive) | 34.6 µM (inactive) | 35 µM (inactive) | 32.5 µM (inactive) | 33.9 µM (inactive) | 60.3 µM (inactive) | 20.4 µM (inactive) | 32.7 µM (inactive) | > 100 µM (inactive) | 19.4 µM (inactive) |  |  |
| CC[C@H](C)C1=C(O)[N@+]2([O-])Oc3ccc(-c4c(O)c(O)c(-c5ccc(O)cc5)c(OC(C)=O)c4OC(C)=O)cc3O[C@]2([C@@H](C)CC)C(=O)N1O | 28.8 µM (inactive) | 15.7 µM (inactive) | 26.5 µM (inactive) | 21.4 µM (inactive) | 30.2 µM (inactive) | 16.3 µM (inactive) | 21.3 µM (inactive) | > 50 µM (inactive) | 27 µM (inactive) | > 50 µM (inactive) | 19.3 µM (inactive) | 47.3 µM (inactive) | 23.5 µM (inactive) | 15.7 µM (inactive) | 24.3 µM (inactive) | 26.7 µM (inactive) | 17.4 µM (inactive) | 33.8 µM (inactive) | 17.7 µM (inactive) |  |
| CC(Oc1ccc(Cl)cc1Cl)C(=O)NN1C(=O)CSC1c1ccc(Cl)cc1 (centres undefined) | 18.9 µM (inactive) | 70.1 µM (inactive) | 64.7 µM (inactive) | 44.1 µM (inactive) | 47.1 µM (inactive) | 21.7 µM (inactive) |  | > 100 µM (inactive) | 46.9 µM (inactive) | 27 µM (inactive) | 20 µM (inactive) | 30.4 µM (inactive) | 19.5 µM (inactive) | > 100 µM (inactive) | 80.5 µM (inactive) | 40.3 µM (inactive) | 43.5 µM (inactive) | > 100 µM (inactive) | 35.3 µM (inactive) |  |
| CCCC(=O)NC(NC1CCCCC1)(C(=O)OCC)C(F)(F)F (centres undefined) |  | > 100 µM (inactive) | > 100 µM (inactive) | > 100 µM (inactive) | > 100 µM (inactive) | > 100 µM (inactive) | > 100 µM (inactive) | > 100 µM (inactive) | > 100 µM (inactive) | > 100 µM (inactive) | > 100 µM (inactive) | > 100 µM (inactive) | > 100 µM (inactive) | > 100 µM (inactive) | > 100 µM (inactive) | > 100 µM (inactive) |  | > 100 µM (inactive) | > 100 µM (inactive) | > 100 µM (inactive) |
| S=C(N/N=C/c1ccccn1)Nc1ccc(Cl)cc1 | < 0.0125 µM (active) | 0.0426 µM (active) | 1.85 µM (inactive) | < 0.01 µM (active) | 0.0347 µM (active) | < 0.01 µM (active) | 0.145 µM (active) | 0.191 µM (active) | 0.0333 µM (active) |  | 0.32 µM (active) | 0.483 µM (active) | < 0.0218 µM (active) | 0.0528 µM (active) | 2.93 µM (inactive) | 0.0528 µM (active) | 0.114 µM (active) | 0.0514 µM (active) | 0.0317 µM (active) | < 0.01 µM (active) |
| CN1CCN(Cc2nc3c(s2)CCc2sccc2-3)CC1 | 37.7 µM (inactive) | 32.7 µM (inactive) | > 100 µM (inactive) | 89.3 µM (inactive) | 28.4 µM (inactive) | 77.8 µM (inactive) | 89.3 µM (inactive) | > 100 µM (inactive) | 94.6 µM (inactive) | 75.5 µM (inactive) | > 100 µM (inactive) | 74.8 µM (inactive) | 36.1 µM (inactive) | > 100 µM (inactive) | 92.7 µM (inactive) | > 100 µM (inactive) | 24.8 µM (inactive) | 59.8 µM (inactive) |  | > 100 µM (inactive) |
| CC(=O)OC1OC(c2ccoc2)C[C@@]12C1CCC3O[C@]3(C)[C@]1(C)C[C@H](OC(C)=O)[C@H]2C (some centres undefined) | > 75 µM (inactive) | > 75 µM (inactive) | > 75 µM (inactive) | > 75 µM (inactive) | > 75 µM (inactive) | > 75 µM (inactive) |  | > 75 µM (inactive) | > 75 µM (inactive) | > 75 µM (inactive) | > 75 µM (inactive) | > 75 µM (inactive) | > 75 µM (inactive) | > 75 µM (inactive) | > 75 µM (inactive) | > 75 µM (inactive) | 51.3 µM (inactive) | 70.8 µM (inactive) | 42.9 µM (inactive) | 38.1 µM (inactive) |
| CN1CCN2CCN(C)CCN(CC1)CC2 | > 100 µM (inactive) | > 100 µM (inactive) | > 100 µM (inactive) | > 100 µM (inactive) | > 100 µM (inactive) | > 100 µM (inactive) |  | > 100 µM (inactive) | > 100 µM (inactive) | > 100 µM (inactive) | > 100 µM (inactive) | > 100 µM (inactive) | > 100 µM (inactive) | > 100 µM (inactive) | > 100 µM (inactive) | > 100 µM (inactive) | > 100 µM (inactive) | > 100 µM (inactive) | > 100 µM (inactive) | > 100 µM (inactive) |
| C#Cc1nc(N)c2ncn(C3OC(COS(N)(=O)=O)C(O)C3O)c2n1 (centres undefined) | 0.0559 µM (active) | 0.0233 µM (active) | 0.0379 µM (active) | 0.0131 µM (active) | < 0.0426 µM (active) | < 0.0181 µM (active) |  | < 0.0148 µM (active) | 0.0188 µM (active) | < 0.0179 µM (active) | 0.0172 µM (active) | 0.0208 µM (active) | < 0.01 µM (active) | < 0.0248 µM (active) | < 0.022 µM (active) | 0.0213 µM (active) | 0.0537 µM (active) | < 0.0187 µM (active) |  | < 0.0189 µM (active) |
| N#Cc1c2ccc([N+](=O)[O-])cc2c(=O)n2c1[nH]c1ccc(C(F)(F)F)cc12 | 60.8 µM (inactive) | 11.2 µM (inactive) | 24.4 µM (inactive) | 12.5 µM (inactive) | 24.5 µM (inactive) | 14.5 µM (inactive) | 41 µM (inactive) | 14.3 µM (inactive) | 33.1 µM (inactive) |  | > 42.4 µM (inactive) | 10.8 µM (inactive) | 4.07 µM (inactive) | 14.4 µM (inactive) | 99.5 µM (inactive) | 26.4 µM (inactive) | 42.7 µM (inactive) | 17.5 µM (inactive) | 0.254 µM (active) | 1.35 µM (inactive) |
| CC(C)CC(NC(=O)C(CCC(=O)OCc1ccccc1)NC(=O)OC(C)(C)C)C(=O)NC(COCc1ccccc1)C(=O)NC(Cc1ccccc1)C(=O)O (centres undefined) (Boc-E(OBn)LS(Bn)F-OH; configuration not given here) |  | > 100 µM (inactive) | > 100 µM (inactive) | > 100 µM (inactive) | > 100 µM (inactive) | > 100 µM (inactive) | 46.9 µM (inactive) | > 100 µM (inactive) | > 100 µM (inactive) | > 100 µM (inactive) | > 100 µM (inactive) | > 100 µM (inactive) | > 100 µM (inactive) | > 100 µM (inactive) | > 100 µM (inactive) | > 100 µM (inactive) | > 100 µM (inactive) | > 100 µM (inactive) | > 100 µM (inactive) |  |
